biological target: T1, human Trk A kinase (Homo sapiens, UniProt P04629); test: Trk A kinase assay (Alphascreen); type: biochemical; settings: intracellular domain of HIS-tagged human Trk A, 70 μM ATP, 20 minutes, room temperature, read-out: Trk inhibitory activity IC50
T1 construct: His; made in house; host or cells: SF9 insect cells
Description: Trk A kinase activity was measured for its ability to phosphorylate synthetic tyrosine residues within a generic polypeptide substrate using an Amplified Luminescent Proximity Assay (Alphascreen) technology (PerkinElmer, 549 Albany Street, Boston, Mass.).
To measure Trk A kinase activity, the intracellular domain of a HIS-tagged human Trk A kinase (amino acids 442-796 of Trk A, Swiss-Prot Primary Accession Number P04629) was expressed in SF9 cells and purified using standard nickel column chromatography. After incubation of the kinase with a biotinylated substrate and adenosine triphosphate (ATP) for 20 minutes at room temperature, the kinase reaction was stopped by the addition of 30 mM ethylenediaminetetraacetic acid (EDTA). The reaction was performed in 384 well microtitre plates and the reaction products were detected with the addition of strepavidin coated Donor Beads and phosphotyrosine-specific antibodies coated Acceptor Beads using the EnVision Multilabel Plate Reader after an overnight incubation at room temperature.

T1 sequence (P04629 442-796): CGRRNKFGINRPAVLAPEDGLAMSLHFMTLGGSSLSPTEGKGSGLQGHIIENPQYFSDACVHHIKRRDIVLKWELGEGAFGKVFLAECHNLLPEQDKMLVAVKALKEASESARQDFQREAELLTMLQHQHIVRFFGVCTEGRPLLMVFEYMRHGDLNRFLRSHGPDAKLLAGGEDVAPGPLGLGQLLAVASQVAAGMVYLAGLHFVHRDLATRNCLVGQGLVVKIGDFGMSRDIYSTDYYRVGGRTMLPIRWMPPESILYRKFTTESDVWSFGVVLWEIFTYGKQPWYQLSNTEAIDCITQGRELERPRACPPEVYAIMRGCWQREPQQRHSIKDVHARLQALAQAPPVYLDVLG

Compared with Fc1ccc(Cn2cnc3cc(Cl)c(Nc4cc(C5CC5)[nH]n4)nc32)cc1 [Example 18, 3-(4-Fluorobenzyl)-6-chloro-N-(5-cyclopropyl-1H-pyrazol-3-yl)-3H-imidazo[4,5-b]pyridin-5-amine], C[C@@H](c1ccc(F)cc1)n1cnc2ccc(Nc3cc(C4CC4)[nH]n3)nc21 [Example 6, (S)—N-(5-Cyclopronyl-1H-pyrazol-3-yl)-3-(1-(4-fluorophenyl)ethyl)-3H-imidazo[4,5-b]pyridin-5-amine] is 4.5-fold higher in IC50: 11 nM for the first, 49 nM for the second.

Work on CC(C)Oc1cc(Nc2ncc3ncn([C@@H](C)c4ccc(F)cc4)c3n2)n[nH]1 [Example 5, 9-[(1S)-1-(4-Fluorophenyl)ethyl]-N-(5-isopropoxy-1H-pyrazol-3-yl)-9H-purin-2-amine] yielded an IC50 of 63 nM.
